Data: ChEMBL document CHEMBL3997815, “Influence of substituent heteroatoms on the cytoprotective properties of pyrimidinol antioxidants” (Bioorg Med Chem, 2017)
Each block holds one compound with its values, some of them ahead of it. Calls of active or inactive are those of the source. The rule behind the calls is not given here.

Assays:
[1] = test system: Lymphocyte; experiment: Antioxidant activity in FRDA patient derived lymphocytes assessed as inhibition of DEM-mediated lipid peroxidation at 0.1 to 2.5 uM pretreated for 16 hrs followed by DEM addition measured after 120 mins by C11-BODIPY581/591 probe-based FACS analysis; assay type: functional, cell-based; details: Homo sapiens
[2] = test system: Lymphocyte; experiment: Cytoprotective activity in DEM-treated FRDA patient derived lymphocytes assessed as preservation of mitochondrial inner membrane potential at 2.5 uM pretreated for 16 hrs followed by DEM addition measured after 120 mins by TMRM dye-based flow cytometric analysis; assay type: functional, cell-based; details: Homo sapiens
[3] = test system: Lymphocyte; experiment: (§1) Cytoprotective activity against DEM-induced oxidative stress in FRDA patient derived lymphocytes assessed as increase in cell viability at 0.1 to 2.5 uM pretreated for 16 hrs followed by DEM addition measured after 6 hrs by calcein acetoxy-methyl-ester/ethidium homodimer-1 staining-based flow cytometric analysis; assay type: functional; details: Homo sapiens
[4] = Metabolic stability in bovine liver microsomes assessed as compound recovery at 25 uM after 30 mins in presence of beta-NADPH by HPLC method; assay type: ADME, Bos taurus, microsome; details: cattle, read-out: Drug recovery
[5] = test system: Lymphocyte; experiment: Antioxidant activity in FRDA patient derived lymphocytes assessed as inhibition of DEM-mediated reactive oxygen species formation at 0.1 to 2.5 uM pretreated for 16 hrs followed by DEM addition measured after 80 mins by DCFH-DA dye-based flow cytometric analysis; assay type: functional, cell-based; details: Homo sapiens
[6] = test system: Lymphocyte; experiment: Antioxidant activity in FRDA patient derived lymphocytes assessed as inhibition of DEM-mediated reactive oxygen species formation at 2.5 uM pretreated for 16 hrs followed by DEM addition measured after 80 mins by DCFH-DA dye-based flow cytometric analysis; assay type: functional, cell-based; details: Homo sapiens
[7] = test system: Lymphocyte; experiment: as §1, with “at” for “at 0.1 to”; assay type: functional; details: Homo sapiens
[8] = test system: Lymphocyte; experiment: Antioxidant activity in FRDA patient derived lymphocytes assessed as inhibition of DEM-mediated lipid peroxidation at 0.1 to 0.5 uM pretreated for 16 hrs followed by DEM addition measured after 120 mins by C11-BODIPY581/591 probe-based FACS analysis; assay type: functional, cell-based; details: Homo sapiens
[9] = test system: Lymphocyte; experiment: Cytoprotective activity in DEM-treated FRDA patient derived lymphocytes assessed as preservation of mitochondrial inner membrane potential at 0.5 uM pretreated for 16 hrs followed by DEM addition measured after 120 mins by TMRM dye-based flow cytometric analysis; assay type: functional, cell-based; details: Homo sapiens
[10] = test system: Lymphocyte; experiment: Cytoprotective activity in FRDA patient derived lymphocytes cultured in glucose-free media supplemented with galactose assessed as total intracellular ATP levels at 1 uM after 48 hrs by luciferin-luciferase reaction-based bioluminescence assay relative to control; assay type: functional, Homo sapiens
[11] = test system: Lymphocyte; experiment: Cytoprotective activity in FRDA patient derived lymphocytes cultured in glucose-free media supplemented with galactose assessed as total intracellular ATP levels at 5 uM after 48 hrs by luciferin-luciferase reaction-based bioluminescence assay relative to control; assay type: functional, Homo sapiens
[12] = test system: Lymphocyte; experiment: Cytoprotective activity in FRDA patient derived lymphocytes cultured in glucose-free media supplemented with galactose assessed as total intracellular ATP levels at 25 uM after 48 hrs by luciferin-luciferase reaction-based bioluminescence assay relative to control; assay type: functional, Homo sapiens

- remaining at 0.5 h, 25 µM [4]: 63%
Structure (SMILES): CCCCCCCCCCCCCCCCc1nc(OC2CCC2)nc(N2CCC2)c1O
- inhibition [1]: Active
- inhibition [5]: Active
- Activity [2]: Active
- Activity [3]: Active

- remaining at 0.5 h, 25 µM [4]: 60%
Structure (SMILES): CCCCCCCCCCCCCCCCc1nc(OC2CCC2)nc(OC2CCC2)c1O
- inhibition [1]: inactive

- remaining at 0.5 h, 25 µM [4]: 72%
Structure (SMILES): CCCCCCCCCCCCCCc1nc(OC2CCC2)nc(OC2CCC2)c1O
- inhibition [1]: Active
- inhibition [6]: Active
- Activity [2]: Active
- Activity [7]: Active
- inhibition [8]: inactive

- remaining at 0.5 h, 25 µM [4]: 61%
Structure (SMILES): COC1=C(OC)C(=O)C(CCCCCCCCCCO)=C(C)C1=O [IDEBENONE]
- inhibition [1]: Active
- Activity [2]: Active
- Activity [9]: Active
- Activity [10]: 98%
- Activity [11]: 73%
- Activity [12]: 3%

- remaining at 0.5 h, 25 µM [4]: 63%
Structure (SMILES): CCCCCCCCCCCCCCc1nc(N2CCC2)nc(OC2CCC2)c1O
- inhibition [1]: Active
- inhibition [5]: Active
- Activity [2]: Active
- Activity [3]: Active

- remaining at 0.5 h, 25 µM [4]: 77%
Structure (SMILES): CCCCCCCCCCCCCCc1nc(OC2CCC2)nc(N2CCC2)c1O
- inhibition [1]: Active
- inhibition [5]: Active
- Activity [2]: Active
- Activity [3]: Active

- remaining at 0.5 h, 25 µM [4]: 62%
Structure (SMILES): CCCCCCCCCCCCCCCCc1nc(N2CCC2)nc(N2CCC2)c1O
- inhibition [1]: inactive
- Activity [2]: Active
- Activity [3]: Active

Second part, the compound before the results:

Structure (SMILES): CCCCCCCCCCCCCCc1nc(N2CCC2)nc(N2CCC2)c1O
- inhibition [1]: inactive
- Activity [2]: Active
- Activity [3]: Active
- remaining at 0.5 h, 25 µM [4]: 63%

Structure (SMILES): Cc1nc(OC2CCC2)nc(OC2CCC2)c1O
- inhibition [1]: inactive

Structure (SMILES): Cc1nc(OC2CCC2)nc(N2CCC2)c1O
- inhibition [1]: inactive

Structure (SMILES): Cc1nc(N2CCC2)nc(OC2CCC2)c1O
- inhibition [1]: inactive

Structure (SMILES): CCCCCCCCCCCCCCCCc1nc(N2CCC2)nc(OC2CCC2)c1O
- inhibition [1]: Active
- inhibition [5]: Active
- Activity [2]: Active
- Activity [3]: Active

Structure (SMILES): Cc1nc(N2CCC2)nc(N2CCC2)c1O
- inhibition [1]: inactive
